# Measured values reported in PubChem BioAssay (NCI).
#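 Each compound was tested at five concentrations against cells in 96-well plates for 48 hours. TGI: total growth inhibition.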
# Columns and labels:
# Experiment in all cases: growth of human tumour cells (NCI), 48 h
# EKVX NSCLC = test system: EKVX NSCLC
# HL-60(TB) leukemia = test system: HL-60(TB) leukemia
# M14 melanoma = test system: M14 melanoma
# MALME-3M melanoma = test system: MALME-3M melanoma
# MDA-N = test system: MDA-N
# NCI-H226 lung = test system: NCI-H226 lung
# OVCAR-4 ovarian = test system: OVCAR-4 ovarian
# OVCAR-5 ovarian = test system: OVCAR-5 ovarian
# SK-MEL-28 melanoma = test system: SK-MEL-28 melanoma
# SK-OV-3 ovarian = test system: SK-OV-3 ovarian
# SNB-75 CNS = test system: SNB-75 CNS
SMILES,TGI (EKVX NSCLC) [µM],TGI (HL-60(TB) leukemia) [µM],TGI (M14 melanoma) [µM],TGI (MALME-3M melanoma) [µM],TGI (MDA-N) [µM],TGI (NCI-H226 lung) [µM],TGI (OVCAR-4 ovarian) [µM],TGI (OVCAR-5 ovarian) [µM],TGI (SK-MEL-28 melanoma) [µM],TGI (SK-OV-3 ovarian) [µM],TGI (SNB-75 CNS) [µM]
CC(C)=CCC/C(=C\CC/C(=C\CCc1ccoc1)C(=O)O)C(=O)O,> 100,> 100,> 100,> 100,> 100,> 100,> 100,> 100,> 100,> 100,> 100
Cc1c(C#N)c2nnn(-c3ccc([N+](=O)[O-])cc3)c(=O)n2c1-c1ccccc1,32,60.3,25,30.7,31.3,26.9,27.5,40.1,79.7,79.4,39.7
Cc1ccc(S(=O)(=O)N(CC(O)c2ccccc2)c2ccccc2F)cc1 (configuration not stated),> 100,9.13,31.9,34.1,33.8,48.7,27.4,41,33.1,38.4,30.3
COc1ccc2c(c1)c(=O)c1c(NCCCN(C)CCCNc3ccc4c(=O)n(CCN(C)C)c(=O)n5c6ccc(OC)cc6c(=O)c3c45)ccc3c(=O)n(CCN(C)C)c(=O)n2c31,1.3,0.963,2.58,2.42,1.49,0.409,< 0.049,3.63,2.32,4.98,0.216
CC(=O)Nc1ccc(N2C(=O)CS(=O)(=O)C2c2cccc(Oc3ccccc3)c2)cc1 (configuration not stated),35.5,84.8,33.9,38.8,32.5,35.8,38.9,37.2,48.3,83.1,55.2
COc1cc(CCNC2=CC(=O)c3cccnc3C2=O)ccc1O,11.5,9.43,2.98,2.32,0.308,3.53,3.87,2.99,2.56,11.1,2.06
[N-]=[N+]=C(C(=O)OCC#CCOC(=O)C(=[N+]=[N-])S(=O)(=O)c1ccccc1)S(=O)(=O)c1ccccc1,> 10,> 10,> 10,> 10,> 10,> 10,> 10,> 10,> 10,> 10,> 10
NC(CCl)=NC1CN2CCC1CC2 (configuration not stated),> 100,> 100,> 100,> 100,> 100,> 100,> 100,> 100,> 100,> 100,> 100
O=c1[nH]nc(-c2ccc([N+](=O)[O-])cc2)n1/N=C/c1ccc([N+](=O)[O-])cc1,> 100,> 100,> 100,> 100,> 100,> 100,> 100,> 100,> 100,> 100,> 100
COc1ccc(C[C@H]2NC(=O)/C=C/C[C@@H]([C@H](C)[C@H]3O[C@@H]3c3ccccc3)OC(=O)[C@H](CC(C)C)OC(=O)[C@H](C)CNC2=O)cc1,> 9.66e-05,5.2e-05,6.84e-05,> 0.0001,2.32e-05,> 7.26e-05,> 0.0001,> 0.0001,> 0.0001,> 0.0001,> 9.19e-05
O=c1[nH]c2nccnc2c2c([N+](=O)[O-])cccc12,> 100,> 100,> 100,> 100,> 100,> 100,> 100,> 100,> 100,> 100,> 100
c1ccc2c(c1)CCN(C1=NCCO1)C2,> 10,> 10,> 10,> 10,> 10,> 10,> 10,> 10,> 10,> 10,> 10
COC(=O)C1=C(O)C(C(=O)OC)[C@]2(O)[C@H](C(=O)OC)[C@H]1C[C@@H](c1cccc(OC)c1)[C@H]2C(=O)OC (some centres not stated),> 100,> 100,> 100,> 100,64.4,> 100,96.4,66.4,> 100,66.6,> 100
O=S(=O)(O)c1ccc2c(N=Nc3ccccc3)c(O)c(S(=O)(=O)O)cc2c1,> 100,> 100,> 100,> 100,> 100,> 100,> 100,> 100,> 100,> 100,> 100
CSc1nc2c(c(=O)n1C)N=C(c1ccc(Cl)cc1)CC(c1ccccc1)N2 (configuration not stated),65.1,62.4,34.7,36.4,30.3,42.6,23.7,> 100,> 100,70.3,37.2
CCN(CC)c1ccc2c(c1)Oc1ccc(N(C(C)=O)c3ccccc3)cc1C21OC(=O)c2ccccc21 (configuration not stated),> 100,97.6,> 100,> 100,> 100,> 100,> 100,> 100,> 100,> 100,> 100

SMILES,TGI (EKVX NSCLC) [µM],TGI (HL-60(TB) leukemia) [µM],TGI (M14 melanoma) [µM],TGI (MALME-3M melanoma) [µM],TGI (MDA-N) [µM],TGI (NCI-H226 lung) [µM],TGI (OVCAR-4 ovarian) [µM],TGI (OVCAR-5 ovarian) [µM],TGI (SK-MEL-28 melanoma) [µM],TGI (SK-OV-3 ovarian) [µM],TGI (SNB-75 CNS) [µM]
COc1cc2c(cc1OC)C1=Cc3ccc(OC)c(OC)c3C(C#N)N1CC2 (configuration not stated),> 100,> 100,> 100,82.9,> 100,> 100,> 100,> 100,> 100,> 100,33.8
CC1(CCc2ccccc2)CC1(Br)Br (configuration not stated),40,41.9,> 100,68.3,> 100,77.1,> 100,> 100,> 100,> 100,> 100
O=c1[nH]nc(Cc2ccccc2)n1/N=C/c1ccc([N+](=O)[O-])o1,16.7,> 100,7.1,3.21,4.83,29.5,24.4,26.1,17.6,> 100,15
CN(C)c1ccc(/C=N/n2c(-c3ccccc3)nc3ccccc3c2=O)cc1,> 100,> 100,> 100,> 100,> 100,> 100,> 100,> 100,> 100,> 100,> 100
O=C(O)CS(=O)c1ccc2c3c(cccc13)C(=O)c1ccccc1-2 (configuration not stated),> 100,> 100,> 100,> 100,> 100,> 100,> 100,> 100,> 100,> 100,> 100
O=C1OC(C2Cc3ccccc3C2=O)c2ccccc21 (configuration not stated),> 100,> 100,> 100,> 100,> 100,> 100,> 100,> 100,> 100,> 100,> 100
COc1ccc(C2c3cc4c(cc3OC(NNC(N)=O)C2C)OCO4)cc1 (configuration not stated),> 100,5.22,> 60.1,> 100,6.86,> 76.2,> 100,> 100,> 100,> 100,> 33.3
O=C(O)C(F)(F)C(F)(F)C(F)(F)C(F)(F)C(=O)O,> 100,> 100,> 100,> 100,> 100,> 100,> 100,> 100,> 100,> 100,> 100
CN1[C@@H]2CCCC[C@H]2N(C)P1(=O)C(O)/C=C/c1ccccc1 (some centres not stated),> 100,> 100,> 100,> 100,> 100,> 100,> 100,> 100,> 100,> 100,> 100
COC(=O)c1c(O)ccc2c1c1c(n2Cc2ccc(OC)cc2)C(=O)c2ccccc2C1=O,> 100,12.1,32.4,64.3,32.7,25.8,35.2,51.7,37.4,48.1,85.8
CC(=O)OC(CC(C)C)P1(=O)N(CC(C)(C)C)[C@@H]2CCCC[C@H]2N1CC(C)(C)C (some centres not stated),23.5,23.1,19.8,22.8,21.3,23.2,23.6,22.9,28.6,30.7,20.6
CCOC(=O)c1[nH]cnc1/N=N/N(C)N,> 100,68.6,> 100,> 100,> 100,> 100,> 100,> 100,> 100,> 100,> 100
CC(=O)[C@H]1CC[C@H]2[C@@H]3CCC4=CC(=O)CC[C@]4(C)[C@H]3CC[C@]12C,9.66,87.1,32.4,35.8,35.9,45,79.3,50.9,37.7,62.9,65.6
N#Cc1nc(C(F)(F)F)oc1N,> 100,> 100,> 100,> 100,> 100,> 100,> 100,> 100,> 100,> 100,> 100
O=C(O)CCC(C(=O)O)N1C(=O)c2ccccc2C1=O (configuration not stated),> 100,> 100,> 100,> 100,> 100,> 100,> 100,> 100,> 100,> 100,> 100
O=c1c2ncn(C3CCCCO3)c2n(-c2ccccc2)c(=S)n1-c1ccccc1 (configuration not stated),> 87.9,> 100,> 100,> 100,> 100,86.2,> 87.2,> 76.5,> 100,61,20.7
